Laboratory results: paper PMC6562952, “Experimental and Computational Study to Reveal the Potential of Non-Polar Constituents from Hizikia fusiformis as Dual Protein Tyrosine Phosphatase 1B and α-Glucosidase Inhibitors” (Marine Drugs, 2019)
Like-named read-outs stand apart in the source and are kept apart here.

How the values were obtained:
Yeast α-glucosidase = assay: In vitro α-glucosidase inhibitory activity assay; assay type: biochemical; settings: for IC50: mean ± SD of triplicate experiments; for α-glucosidase inhibitory activity (in words): under the tested concentration
Protocol: Enzyme inhibition studies were carried out spectrophotometrically in a 96-well micro-plate reader using a procedure reported by Li et al..

PTP1B [1] = biological target: T1, PTP1B (Homo sapiens, UniProt P18031); assay: Enzyme kinetic analysis towards PTP1B (Lineweaver-Burk plot and secondary plots); assay type: biochemical
T1 sequence (P18031 1-322): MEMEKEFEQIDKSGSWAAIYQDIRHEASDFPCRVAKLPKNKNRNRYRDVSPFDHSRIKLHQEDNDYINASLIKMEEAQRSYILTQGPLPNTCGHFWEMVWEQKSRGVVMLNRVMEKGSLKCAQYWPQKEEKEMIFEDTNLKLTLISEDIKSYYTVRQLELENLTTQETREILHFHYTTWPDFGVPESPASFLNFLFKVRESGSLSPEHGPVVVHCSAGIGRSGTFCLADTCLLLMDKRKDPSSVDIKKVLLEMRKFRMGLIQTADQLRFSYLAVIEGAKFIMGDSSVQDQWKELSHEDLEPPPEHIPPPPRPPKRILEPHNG
Protocol: The inhibition constant (Ki) and inhibition mode for the inhibition of PTP1B was calculated by the Lineweaver-Burk plot and its secondary plot of the slope and the y-intercept of compounds [49, 50]. […] Graphs were generated using SigmaPlot 12.0 (Systat Software Inc., San Jose, CA, USA).

[2] = biological target: T2, truncated form of human recombinant PTP1B (amino acid 1-322) (Homo sapiens, UniProt P18031); assay: In vitro PTP1B inhibitory activity assay (pNPP substrate); settings: for IC50: mean ± SD of triplicate experiments, pNPP substrate
T2 sequence (P18031 1-322): T1 sequence (P18031 1-322)
Protocol: A truncated form of human recombinant PTP1B (amino acid 1-322) was purchased from Enzo Life Sciences (Farmingdale, NY, USA) and dithiothreitol (DTT) was purchased from Bio-Rad Laboratories (Hercules, CA, USA). All other chemicals and solvents were purchased from E. Merck, Fluka, and Sigma-Aldrich, unless otherwise stated.
The inhibitory activity of isolated compounds against truncated form of human recombinant PTP1B was evaluated using pNPP as a substrate [48]. The amount of p-nitrophenyl produced after enzymatic dephosphorylation of pNPP was estimated by measuring the absorbance at 405 nm using a micro-plate spectrophotometer (Molecular Devices, Sunnyvale, CA, USA).

PTP1B [3] = settings: in vitro; cited from earlier work
[4] = tested on: insulin-resistant HepG2 cells; settings: cited from earlier work
[5] = tested on: streptozotocin-induced Sprague-Dawley rats; settings: fucosterol from Pelvetia siliquosa; cited from earlier work

SMILES	IC50 (Yeast α-glucosidase) [µM]	IC50 ([2]; IC50 PTP1B) [µM]	also measured
CC(C)C1(CC[C@@H](C)[C@H]2CCC3C4CC=C5C[C@@H](O)CC[C@]5(C)C4CC[C@@]32C)OC1C (mixture of isomers) [Compound 6, 24R,28R and 24S,28R-epoxy-24-ethylcholesterol]	> 150	16.7 ± 0.36	Enzyme Kinetics Inhibition Type (PTP1B) (PTP1B [1]): Non-competitive; times stronger PTP1B inhibitory activity than 5 ([2]; ratio of IC50 versus fucosterol (5)): 3 times
CCC/C=C\CCCCCCCCCCC(=O)O [Compound 1, (Z)-hexadec-12-enoic acid]	48.1 ± 3.37	6.59 ± 0.09	
CCCCCCCCCCCCCCCC(=O)O [Compound 2, palmitic acid]	93.6 ± 3.68	49.4 ± 1.39	
CCCCCCCC/C=C\CCCCCCCC(=O)O [Compound 3, (Z)-octaec-9-enoic acid]	113 ± 2.47	13.7 ± 0.49	
C=CC(O)(CCC(C)C1CCC2C3CC=C4CC(O)CCC4(C)C3CCC12C)C(C)C (stereo not drawn) [Compound 4, 24R and 24S-saringosterol]	> 150	> 150	PTP1B inhibitory activity (in words) ([2]; under the tested concentration): no activity
C/C=C(\CC[C@@H](C)[C@H]1CC[C@H]2[C@@H]3CC=C4C[C@@H](O)CC[C@]4(C)[C@H]3CC[C@]12C)C(C)C [Compound 5, fucosterol]	> 150	50.6 ± 1.86	Enzyme Kinetics Inhibition Type (PTP1B) (PTP1B [1]): non-competitive; PTP1B inhibition type (literature) (PTP1B [3]): non-competitive; effect on insulin resistance [4]: improved insulin resistance; anti-diabetic activity [5]: anti-diabetic activity
CC/C=C\C/C=C\C/C=C\CCCCCCC(=O)O [Compound 7, (8Z,11Z,14Z)-heptadeca-8,11,14-trienoic acid]	> 200	4.86 ± 1.36	
CCCCCC\C=C/C=C\C=C/C=C\CCCCCC(=O)O [Compound 9, (7Z,9Z,11Z,13Z)-icosa-7,9,11,13-tetraenoic acid]	34.9 ± 2.39	10.7 ± 0.17	
CC/C=C\C/C=C\C/C=C\C/C=C\CCCCC(=O)O [Compound 10, (6Z,9Z,12Z,15Z)-octadeca-6,9,12,15-tetraenoic acid]	> 200	16.43 ± 0.07	
COc1cc(C(O)C(CO)Oc2ccc(CCCO)cc2O)ccc1O (stereo not drawn) [Compound 15, 1-(4-hydroxy-3-methoxyphenyl)-2-[2-hydroxy-4-(3-hydroxypropyl)phenoxy]-1,3-propanediol]	> 250	> 400	
CC1(C)CC2CC(C)(O2)/C1=C/C(=O)O (stereo not drawn) [Compound 17, madhusic acid A]	> 300		IC50 ([2]; read-out: IC50 PTP1B): > 400 µM
CC1(C)[C@@H](O[C@H]2O[C@H](C(=O)O)[C@@H](O)[C@H](O)[C@H]2O[C@@H]2O[C@H](C(=O)O)[C@@H](O)[C@H](O)[C@H]2O)CC[C@]2(C)[C@H]3C(=O)C=C4[C@@H]5C[C@@](C)(C(=O)O)CC[C@]5(C)CC[C@@]4(C)[C@]3(C)CC[C@@H]12 [Compound 18, 18β-glycyrrhetinic acid-3-O-β-D-glucuronopyranosyl-1(→2)-β-D-glucuronide]	> 150	110.3 ± 0.39	α-glucosidase inhibitory activity (in words) (Yeast α-glucosidase): no activity
COC(=O)C1OC(OC2CCC3(C)C(CCC4(C)C3C(=O)C=C3C5CC(C)(C(=O)O)CCC5(C)CCC34C)C2(C)C)C(OC2OC(C(=O)O)C(O)C(O)C2O)C(O)C1O [Compound 19, 18β-glycyrrhetinic acid-3-O-β-D-glucuronopyranosyl-1(→2)-β-D-glucuronide-6’-methyl ester]	> 150		α-glucosidase inhibitory activity (in words) (Yeast α-glucosidase): no activity; times stronger PTP1B inhibition than compound 18 ([2]; ratio of IC50 versus glycyrrhizin (18)): 2.2 times
CC(=O)C=C=C1C(C)(C)CC(OC(C)=O)CC1(C)O [Compound 20, (3R)-4-[(2R,4S)-4-acetoxy-2-hydroxy-2,6,6-trimethylcyclohexylidene]but-3-en-2-one]	> 250	323.2 ± 0.84	
NCCc1ccc(O)cc1 [Compound 21, tyramine]	273 ± 5.65	188 ± 3.21	

Further lines, with some results ahead:

IC50 (Yeast α-glucosidase) [µM]	IC50 ([2]; IC50 PTP1B) [µM]	SMILES	also measured
112 ± 1.44	13.58 ± 0.1	CCCC/C=C\C/C=C\C/C=C\CCCCCC(=O)O [Compound 8, (7Z,10Z,13Z)-octadeca-7,10,13-trienoic acid]	
43.9 ± 0.77	11.5 ± 0.52	CC/C=C\C/C=C\C/C=C\CCCCCCC(=O)O [Compound 12, (8Z,11Z,14Z)-heptadeca-8,11,14-trienoic acid]	
> 150	4.92 ± 0.01	C=C(COC(=O)CCCCCC(=O)OCC(O)COC(=O)CCC/C=C\C/C=C\C/C=C\CCCCCCCC)C(=O)O (stereo not drawn) [Compound 13, 2-(7′-(2″-hydroxy-3″-((5Z,8Z,11Z)-icosatrienoyloxy)propoxy)-7′-oxoheptanoyl)oxymethylpropenoic acid]	Enzyme Kinetics Inhibition Type (PTP1B) (PTP1B [1]): Non-competitive
134 ± 3.86	174 ± 5.44	COc1cc([C@H]2Oc3c(O)cc(CCCO)cc3[C@@H]2CO)ccc1O [Compound 14, cedrusin]	
> 250	> 400	OCC1OC(OCc2ccccc2)C(O)C(O)C1O (stereo not drawn) [Compound 16, benzyl alcohol alloside]	
113.3 ± 0.7		CC1(C)[C@@H](O)CC[C@]2(C)[C@H]3C(=O)C=C4[C@H]5C[C@@](C)(C(=O)O)CC[C@]5(C)CC[C@@]4(C)[C@]3(C)CC[C@@H]12 [Compound 22, 18α-glycyrrhetinic acid]	Enzyme Kinetics Inhibition Type (PTP1B) (PTP1B [1]): Competitive
129 ± 3.88		CC1(C)C2CC[C@]3(C)[C@H](C(=O)C=C4[C@@H]5C[C@@](C)(C(=O)O)CC[C@]5(C)CC[C@]43C)[C@@]2(C)CC[C@@H]1O (stereo partly drawn) [Compound 23, 18β-glycyrrhetinic acid]	Enzyme Kinetics Inhibition Type (PTP1B) (PTP1B [1]): Competitive
